Results reported in ChEMBL document CHEMBL1201862, “PubChem BioAssay data set” (2004).
Activity calls are given as the source filed them.

Experiments:
[1] = target: FAD-linked sulfhydryl oxidase ALR (Homo sapiens, UniProt P55789); test: ALR-catalysed DTT oxidation blockers – biochemical, H2O2 detection, luminescence, cherry-pick, dose response (AID 493248)
[2] = tested on: Streptococcus sp. 'group A'; test: Streptococcus pyogenes SK(-)GAS viability under kanamycin – luminescence, BacTiterGlo, confirmation, counter-screen for streptokinase expression inhibitor project, dose response (AID 1900); type: functional, organism-based
[3] = target: T1, Streptokinase A (Streptococcus pyogenes serotype M1, UniProt P10520); test: viability-normalized secreted streptokinase activity reduction – plasminogen activation absorbance, OD405, dose response (AID 1914); type: functional, Streptococcus pyogenes M1 GAS;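 further: secreted streptokinase activity via plasminogen activation per viability signal from cell pellet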
T1 sequence (P10520 whole entry): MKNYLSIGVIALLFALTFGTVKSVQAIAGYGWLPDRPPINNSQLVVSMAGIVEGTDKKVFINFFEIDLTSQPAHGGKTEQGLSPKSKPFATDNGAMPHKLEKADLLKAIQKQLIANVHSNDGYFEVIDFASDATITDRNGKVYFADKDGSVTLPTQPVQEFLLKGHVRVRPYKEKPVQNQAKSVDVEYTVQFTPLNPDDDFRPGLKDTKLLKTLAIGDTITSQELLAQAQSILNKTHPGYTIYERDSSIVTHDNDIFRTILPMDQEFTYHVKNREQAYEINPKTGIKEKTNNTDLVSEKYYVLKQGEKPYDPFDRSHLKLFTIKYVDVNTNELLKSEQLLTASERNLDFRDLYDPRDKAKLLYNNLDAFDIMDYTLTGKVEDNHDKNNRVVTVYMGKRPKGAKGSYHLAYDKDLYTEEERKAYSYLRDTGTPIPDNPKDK

[4] = viability of PTEN-deleted HCT116 cells – cell-based, HCT116 PTEN knockout, dose response (AID 1047); type: functional;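 further: HCT116 colon tumor cells with PTEN knocked out; cells exposed to compound for 60 hours before readout; potency for loss of cell viability measured by luminescence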
[5] = viability of HCT116 lacking mutant beta-catenin – cell-based, human colon tumor, dose response (AID 1045); type: functional;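 further: HCT116 colon tumor cells with beta catenin knocked out; cells exposed to compound for 60 hours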
[6] = tested on: Streptococcus; test: GAS UMAA2166 growth inhibition – luminescence, BacTiterGlo, counter-screen for streptokinase expression inhibitor project, dose response (AID 1915); type: functional, organism-based;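 further: potency for reduction of bacterial viability or growth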
[7] = target: T2, Rac GTPase-activating protein 1 (Homo sapiens, UniProt Q9H0H5); test: blockers of MgcRacGAP-driven Rac1 GTP hydrolysis – biochemical, ADP Hunter fluorescence, primary and confirmatory, confirmation (AID 624330); type: functional
T2 sequence (Q9H0H5 whole entry): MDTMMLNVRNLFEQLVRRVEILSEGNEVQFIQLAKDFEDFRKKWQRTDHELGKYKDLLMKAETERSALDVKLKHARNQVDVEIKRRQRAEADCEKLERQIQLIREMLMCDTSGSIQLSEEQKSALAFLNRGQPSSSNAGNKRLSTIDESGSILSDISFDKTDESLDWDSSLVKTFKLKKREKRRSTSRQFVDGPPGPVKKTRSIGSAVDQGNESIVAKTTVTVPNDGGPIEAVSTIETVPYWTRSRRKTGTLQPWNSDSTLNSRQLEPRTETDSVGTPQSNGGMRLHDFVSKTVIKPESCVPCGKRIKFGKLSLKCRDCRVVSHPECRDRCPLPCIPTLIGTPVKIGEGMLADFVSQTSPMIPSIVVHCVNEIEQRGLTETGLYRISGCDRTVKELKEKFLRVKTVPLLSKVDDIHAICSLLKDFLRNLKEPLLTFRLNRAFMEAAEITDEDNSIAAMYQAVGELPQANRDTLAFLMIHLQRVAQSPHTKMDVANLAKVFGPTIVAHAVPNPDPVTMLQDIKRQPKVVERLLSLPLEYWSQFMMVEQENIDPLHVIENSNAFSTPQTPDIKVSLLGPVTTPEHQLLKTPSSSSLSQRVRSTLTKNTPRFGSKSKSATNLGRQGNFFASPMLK

[8] = blockers of bursicon-stimulated LGR2 cAMP reporter – cell-based, HEK293, CRE-luciferase reporter, cherry pick, set 2, dose response (AID 743343); type: functional;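 further: transfected cells were stimulated with diluted bursicon conditioned medium after compound addition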
[9] = blockade of melanocortin 4 receptor signaling – cell-based, plate reader, cherry pick, counter-screen for LGR2 antagonist project, dose response (AID 743444); type: functional;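 further: transfected HEK 293 cells stimulated with alpha-MSH peptide; potency of inhibitors of the alpha-MSH evoked signal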
[10] = target: T3, Ubiquitin-conjugating enzyme E2 N (Homo sapiens, UniProt P61088); type: functional;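 further: Dose-response confirmation in a TR-FRET assay detecting UBC13-driven polyubiquitin chain formation, inhibition measured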
T3 sequence (P61088 whole entry): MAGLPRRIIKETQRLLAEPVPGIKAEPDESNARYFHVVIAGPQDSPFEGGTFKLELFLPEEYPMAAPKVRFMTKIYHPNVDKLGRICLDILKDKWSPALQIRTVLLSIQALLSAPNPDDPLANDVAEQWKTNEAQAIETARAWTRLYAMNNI

[11] = target: T4, Corticotropin-releasing factor receptor 2/Corticotropin-releasing factor-binding protein (Homo sapiens, UniProt P24387+Q13324); test: activators of CRF receptor 2 with binding protein – uHTS hits, confirmation (AID 602473); type: functional; settings: read-out: EC50_Mean
T4 sequence (Q13324 whole entry): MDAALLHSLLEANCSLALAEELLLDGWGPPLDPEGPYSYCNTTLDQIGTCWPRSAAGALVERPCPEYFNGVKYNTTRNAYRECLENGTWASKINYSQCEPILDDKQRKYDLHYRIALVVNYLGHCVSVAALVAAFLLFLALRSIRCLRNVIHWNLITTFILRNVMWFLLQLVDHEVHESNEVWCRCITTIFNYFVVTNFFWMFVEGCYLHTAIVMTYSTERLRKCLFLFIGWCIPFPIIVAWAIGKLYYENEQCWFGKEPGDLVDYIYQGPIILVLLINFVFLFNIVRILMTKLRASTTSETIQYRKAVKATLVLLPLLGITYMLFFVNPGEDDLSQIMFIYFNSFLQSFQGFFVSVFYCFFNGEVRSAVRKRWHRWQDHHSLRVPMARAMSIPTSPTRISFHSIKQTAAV
T4 sequence (P24387 whole entry): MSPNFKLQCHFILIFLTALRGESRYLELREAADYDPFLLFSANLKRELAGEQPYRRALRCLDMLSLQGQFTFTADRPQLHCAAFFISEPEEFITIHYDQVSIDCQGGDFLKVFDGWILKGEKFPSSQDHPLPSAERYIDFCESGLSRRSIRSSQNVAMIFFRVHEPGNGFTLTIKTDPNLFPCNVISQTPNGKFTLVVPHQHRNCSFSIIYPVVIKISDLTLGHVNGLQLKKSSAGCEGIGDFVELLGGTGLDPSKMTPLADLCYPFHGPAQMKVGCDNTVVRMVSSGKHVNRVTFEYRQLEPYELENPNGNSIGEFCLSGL

[12] = NIH-3T3 fibroblast cytotoxicity, dose response, cytotoxicity control, cell-based, fluorescence, Alamar Blue, secondary assay (AID 2327); type: functional;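 further: NIH-3T3 mouse fibroblasts cultured with fluconazole at 8 µg/mL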
[13] = fluconazole-exposed Candida albicans growth modulators – fluorescence, retest, confirmation (AID 2467); type: functional, cell-based
[14] = microbe, parasite or virus in culture; type: functional; settings: Mycobacterium tuberculosis
[15] = tested on: INS1; test: INS-1E survival protection against cytokine death – cell-based, luminescence, retest, dose response (AID 449756); type: functional; settings: Rattus norvegicus;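 further: cell death triggered by IL-1 beta plus TNF-alpha plus IFN-gamma mixture; protective hits raise ATP signal compared with cytokine alone wells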
[16] = target: Cytochrome P450 2D6 (Homo sapiens, UniProt P10635);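 further: CYP2D6 member of a cytochrome P450 panel assay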
Cytochrome P450 2D6, sequence (P10635 whole entry): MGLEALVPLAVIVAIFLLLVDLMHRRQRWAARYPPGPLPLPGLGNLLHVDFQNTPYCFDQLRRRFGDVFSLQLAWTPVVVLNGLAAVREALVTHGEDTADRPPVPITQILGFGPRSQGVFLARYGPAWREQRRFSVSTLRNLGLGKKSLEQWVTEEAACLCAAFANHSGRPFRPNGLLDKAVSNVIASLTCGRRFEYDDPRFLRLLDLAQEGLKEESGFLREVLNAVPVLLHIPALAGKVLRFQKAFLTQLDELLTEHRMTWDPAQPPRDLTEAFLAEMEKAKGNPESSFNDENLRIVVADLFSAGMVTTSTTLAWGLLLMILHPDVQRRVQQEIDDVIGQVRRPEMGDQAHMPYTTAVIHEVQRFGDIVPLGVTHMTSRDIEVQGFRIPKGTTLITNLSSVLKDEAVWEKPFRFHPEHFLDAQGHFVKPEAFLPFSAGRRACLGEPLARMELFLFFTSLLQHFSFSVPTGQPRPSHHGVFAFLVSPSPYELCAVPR

[17] = target: T5, Cytochrome P450 1A2 (Homo sapiens, UniProt P05177);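 further: PubChem cytochrome P450 panel assay, CYP1A2 panel member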
T5 sequence (P05177 whole entry): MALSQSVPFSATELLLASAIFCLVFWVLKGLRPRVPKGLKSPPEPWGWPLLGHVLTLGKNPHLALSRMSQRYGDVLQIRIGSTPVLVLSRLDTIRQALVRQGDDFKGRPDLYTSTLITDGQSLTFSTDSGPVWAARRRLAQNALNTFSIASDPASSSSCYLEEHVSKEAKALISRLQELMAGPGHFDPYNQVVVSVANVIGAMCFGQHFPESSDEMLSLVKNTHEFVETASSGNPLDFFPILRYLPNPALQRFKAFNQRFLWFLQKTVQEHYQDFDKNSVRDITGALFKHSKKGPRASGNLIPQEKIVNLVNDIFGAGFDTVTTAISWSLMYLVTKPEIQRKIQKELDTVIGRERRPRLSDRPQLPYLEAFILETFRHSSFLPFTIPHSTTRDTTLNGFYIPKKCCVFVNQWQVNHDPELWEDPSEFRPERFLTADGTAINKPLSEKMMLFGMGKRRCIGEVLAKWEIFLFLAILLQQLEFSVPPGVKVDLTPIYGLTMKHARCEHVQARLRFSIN

[18] = Trypanosoma cruzi growth suppression in host cells – NIH3T3 host cells, beta-gal luminescence, confirmation (AID 2044); type: functional, cell-based;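 further: intracellular parasites grown in NIH/3T3 mouse fibroblasts as host cells; luminescent beta-galactosidase reporter signal from transgenic T. cruzi replicating inside host cells; inhibitors lower the luminescence signal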
[19] = NIH3T3 cell viability loss – ATP luminescence, mouse fibroblasts, counter-screen, dose response (AID 2010); type: functional, cell-based;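 further: cells exposed to compound for about 90 hours before reading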
[20] = viability of uninfected HEp-2 cells – cell-based, HTS, cytotoxicity control for RSV inhibitor project, dose response (AID 2410); type: functional; settings: human respiratory syncytial virus
[21] = tested on: H9c2; test: cells; type: functional, cell-based; settings: Rattus norvegicus, H9c2, Myocardium;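 further: confirmatory concentration-response retest of ultra-high-throughput screening hits for modulation of myocardial damage; cell death induced by hydrogen peroxide oxidative stress; compound pretreatment for 60 min then peroxide exposure for 2 h; potency is for protecting the cells against peroxide damage rather than for killing them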

FAD-linked sulfhydryl oxidase ALR, sequence (P55789 whole entry): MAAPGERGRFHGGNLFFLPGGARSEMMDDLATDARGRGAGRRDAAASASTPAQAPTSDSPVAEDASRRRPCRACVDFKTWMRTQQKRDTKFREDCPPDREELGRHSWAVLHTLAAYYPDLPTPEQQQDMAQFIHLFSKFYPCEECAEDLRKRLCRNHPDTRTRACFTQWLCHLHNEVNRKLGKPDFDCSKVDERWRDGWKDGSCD

Compound: CCCc1cc(C(N)=O)c(NC(=O)c2ccoc2C)s1
- AC50 [1]: 2.74 µM (active)

Compound: COc1cc2nc(S)n3nc(CCn4nc(C)cc4C)nc3c2cc1OC
- EC50 [2]: 28.4 µM (active)
- EC50 [3]: > 150 µM (not active)
- EC50 [4]: 14.5 µM (active)
- EC50 [5]: 25 µM (active)
- EC50 [6]: > 150 µM (not active)
- IC50 [7]: 23.2 µM (active)

Compound: c1ccc(-n2ncc3c(N4CCCCC4)ncnc32)cc1
- AC50 [8]: 1.94 µM (active)
- AC50 [9]: 2.83 µM (active)

Compound: O=C(NC(=S)Nc1ccc(N2CCN(C(=O)c3ccccc3)CC2)cc1)c1cccs1
- IC50 [10]: > 20 µM (inactive)

Compound: COc1ccc(N2CCN(CCCNC(=O)C3CCCN(S(=O)(=O)c4c[nH]cn4)C3)CC2)cc1 (stereo not drawn)
- AC50 [1]: 25.4 µM (active)

Compound: O=C1c2ccccc2C(=O)N1c1ncc(Cc2ccc(Cl)cc2)s1
- EC50 [11]: 2.43 µM (active)

Compound: O=C(/C=C/c1ccco1)Nc1cccc(-c2nc3ccccc3[nH]2)c1
- EC50 [12]: > 150 µM (inactive)
- EC50 [13]: 1.86 µM (active)
- CC50 [14]: 30.8 µM (active)

Compound: CCCCCc1ccc(OCCCC[n+]2ccccc2)c(CCCCC)c1
- EC50 [12]: > 160 µM (inactive)
- EC50 [2]: 3.85 µM (active)
- EC50 [3]: 27.1 µM (active)
- EC50 [13]: < 0.03 µM (active)
- EC50 [6]: 8.33 µM (active)
- IC50 [10]: > 20 µM (inactive)
- AC50 [15]: 2.79 µM (active)

Compound: C#CCOCCOCCOCCNc1nc(N2CCN(C(=O)[C@H]([C@@H](C)CC)n3cc([C@@H](N)CC(C)C)nn3)CC2)nc(N2CCN(C(=O)[C@H]([C@@H](C)CC)n3cc([C@@H](N)CC(C)C)nn3)CC2)n1
- IC50 [10]: > 20 µM (inactive)

Compound: CN(C)CCNc1oc(COc2ccc(Cl)cc2Cl)nc1C#N
- IC50 [10]: > 20 µM (inactive)
- AC50 [16]: 14.1 µM (inconclusive)
- AC50 [17]: 25.1 µM (inconclusive)

Compound: O=C(Nc1ccc(OC(F)(F)F)cc1)c1ccc2c(c1)no[n+]2[O-]
- CC50 [14]: 20.6 µM (active)

Compound: OC(CNCC1CCCO1)Cn1c2ccc(Br)cc2c2cc(Br)ccc21 (stereo not drawn)
- EC50 [12]: 9.05 µM (inconclusive)
- EC50 [2]: 3.18 µM (active)
- EC50 [3]: 7.22 µM (active)
- EC50 [13]: > 38 µM (not active)
- EC50 [18]: 0.533 µM (active)
- EC50 [4]: 4.41 µM (active)
- EC50 [19]: > 60 µM (inconclusive)
- EC50 [5]: 4.46 µM (active)
- EC50 [6]: 8.12 µM (active)

Compound: O=C(O)c1ccc(NC(=O)C2CCCCC2)cc1
- EC50 [11]: > 53 µM (inactive)

Compound: O=C(NCSc1ccncn1)c1ccccc1
- AC50 [1]: 1.49 µM (active)

Compound: Cc1nc(SCc2cccnc2)nc(O)c1C
- AC50 [1]: 1.18 µM (active)

Compound: Cc1ccc(S(=O)(=O)NNC(=O)NC23CC4CC(CC(C4)C2)C3)cc1
- AC50 [1]: 1.02 µM (active)

Compound: CC(=O)OC[C@H]1O[C@@H](O[C@@H]2C[C@H]3C(C)(C)[C@H](OC(C)=O)CC[C@]3(C)[C@H]3CC[C@]45C[C@]4(CC[C@H]5[C@@H](C)C[C@@H](O)[C@H](O)C(C)(C)O)[C@@]32C)[C@H](O)[C@@H](O)[C@@H]1O [CUMINGIANOSIDE A]
- CC50 [14]: 27.7 µM (active)
- EC50 [4]: 8.19 µM (active)
- EC50 [5]: 8.05 µM (active)

Compound: Cc1ccc(OCCCC(=O)NNC(=O)c2ccccn2)cc1
- IC50 [10]: > 20 µM (inactive)

Compound: CC(=O)c1ccccc1OCC(O)CN1CCN(CCN2C(=O)c3cccc4cccc(c34)C2=O)CC1 (stereo not drawn)
- CC50 [20]: > 50 µM (active)
- IC50 [10]: > 20 µM (inactive)
- IC50 [21]: 23.1 µM (active)

Compound: [O-][S+](c1ccc2ccccc2c1)c1cnns1 (stereo not drawn)
- AC50 [1]: 0.769 µM (active)
